Test results reported in patent US5753681A, “Treatment and prophylaxis of pancreatitis” (Sankyo Company, Limited, priority 1996, dated 1998).

How the values were obtained:
[1] = Increase in the pancreatic weight in a model of spontaneous chronic pancreatitis (3 months); assay type: in vivo, male WBN/Kob rats; conditions: treated group, 0.2% in feed, 140 mg/kg/day, three months; control 773 ± 17; **p < 0.01 vs. control
Description: (§1) Since the decrease in the amount of pancreatic parenchyma resulting from chronic pancreatitis causes loss of pancreatic weight, any suppression of the decrease in the amount of pancreatic parenchyma can be used as an index for evaluating any improvement in the pancreatitis. Furthermore, since degeneration and necrosis of the pancreatic parenchyma and its replacement by connective tissue occurs in chronic pancreatitis, the seriousness of the pancreatitis can be estimated by histopathologically measuring the area over which the pancreatic parenchyma is replaced with connective tissue (known as the "cicatrized area").
Measurement of the weight of the pancreas may be carried out by conventional procedures after the experimental animals have been sacrificed by phlebotomy.
The test animals were male WBN/Kob rats, which are commonly used as models of spontaneous chronic pancreatitis and suffer pancreatic weight loss and dysfunction of the exocrine pancreatic tissue due to degeneration and necrosis of the pancreatic parenchyma and its replacement by connective tissue [Tsuchitani et al., Laboratory Animals, 19(3), 200-207, (1985)]. […] After the rats had been fed with the feeds for three months, the pancreas of each animal was totally enucleated and its weight was measured.

[2] = Histopathology of pancreatic tissue of Example 2: total cross-sectional area and cicatrized area; assay type: in vivo, male WBN/Kob rats; conditions: 0.2% in feed, three months
Description: as §1
The measurement of the cicatrized area may also be carried out by conventional procedures. More specifically, male WBN/Kob rats are used as models of spontaneous chronic pancreatitis and are fed with a powdered feed admixed with a test compound. The pancreas of each animal is then totally enucleated. Its weight is measured and also the cicatrized area is measured relative to the total cross-sectional area of the pancreas tissue sliced by an image analyser.
The test animals were male WBN/Kob rats, which are commonly used as models of spontaneous chronic pancreatitis and suffer pancreatic weight loss and dysfunction of the exocrine pancreatic tissue due to degeneration and necrosis of the pancreatic parenchyma and its replacement by connective tissue [Tsuchitani et al., Laboratory Animals, 19(3), 200-207, (1985)]. Each group of test animals contained 4 animals, and the animals were used for the experiment when they had reached 12 weeks old. The animals were fed with powdered feed F2 mixed with 0.2% of troglitazone for three months. This group is hereinafter referred to as "the treated group". The average dose of the compound during this period was 140 mg/kg/day. Meanwhile, another four rats (control group) were fed with the powdered feed F2 only. After the rats had been fed with the feeds for three months, the pancreas of each animal was totally enucleated and its weight was measured.
In order to evaluate the results of Example 2 histopathologically, each pancreas used for weight measurement in Example 2 was fixed in 10% neutral formalin. It was then divided into a spleen side half and a duodenum side half, and each half was sliced at 3 mm intervals to provide cross-sectional tissue pieces. […] The total cross-sectional area of the pancreatic tissue piece on each preparation was measured using an image analyser (SPICCAII, manufactured by Olympus Optical Co., Ltd.).
In addition, the surface area of the zone which had undergone degeneration and necrosis and in which the exocrine pancreatic tissue was replaced with connective tissue (the cicatrized area) was measured using an image analyser.

Cc1c(C)c2c(c(C)c1O)CCC(C)(COc1ccc(CC3SC(=O)NC3=O)cc1)O2 (centres unmarked) [troglitazone, 5-[4-(6-Hydroxy-2,5,7,8-tetramethylchroman-2-ylmethoxy)benzyl]thiazolidine-2,4-dione]
Pancreatic weight [1]: 936 ± 27 mg | Cicatrized area in the exocrine pancreatic tissue ([2]; duodenum side half, control 10.84 ± 0.60, *p < 0.05): 6.76 ± 1.37 mm^2 | Total cross-sectional area of pancreatic tissue piece ([2]; duodenum side half, control 89.5 ± 6.6): 132.8 ± 23.6 mm^2 | Cicatrized area in the exocrine pancreatic tissue ([2]; spleen side pancreatic half, control 5.95 ± 0.90, *p < 0.05): 3.31 ± 0.48 mm^2 | Total cross-sectional area of pancreatic tissue piece ([2]; spleen side pancreatic half, control 150.5 ± 4.6, *p < 0.05): 172.6 ± 5.3 mm^2
